Experimental data taken from US20250011311A1, “AMIDO HETEROAROMATIC COMPOUNDS” (AstraZeneca AB, priority 2022, published 2025).
pIC50: −log10 of the molar value.

How the values were obtained:
[1] = molecular target: recombinant 17bHSD13 (N2-K300) (Homo sapiens (Human), UniProt Q7Z5P4); experiment: In Vitro 17bHSD13 Enzyme Assay; type: biochemical; conditions: 80 nM 17bHSD13, 0.5 mM NAD, 20 μM Estradiol, 2.5 h; estradiol to estrone by LC-MS/MS
Experimental: In Vitro 17bHSD13 Enzyme Assay
The enzyme reaction was initiated by addition, using CERTUS-FLEX dispenser (GYGER), of 20 μl of substrate solution containing NAD (SIGMA, N1511) and Estradiol (SIGMA, E8875). […] Final assay conditions were 80 nM of 17bHSD13, 0.5 mM of NAD, 20 μM Estradiol and various concentrations of compound in buffer (5 mM EDTA (TEKNOVA E0306), 0.01% DDM (AFFYMETRIX D310) in 50 mM Tris-Cl, pH 7.4).
(§1) SCIEX LC-MS/MS system: Sample was injected with CTC analytical injector, SHIMATZU LC pumps LC20 and analyzed on the SCIEX API 5000 LCMSMS system with the following settings. […] The mobile phases consist of A (water with 0.2% formic acid) and B (acetonitrile with 0.2% formic acid). The LC gradient profile is as follows: 50% B during 0 to 0.5 min, a linear increase to 100% B during 0.5 to 1 min, hold at 100% B during 1 to 1.6 min then back to 50% B from 1.6 to 2 min. […] Detection was performed on a API 5000 LC/MS/MS system with a triple quadrupole mass spectrometer, a TURBO V ion source, in multiple reaction monitoring (MRM) mode at positive polarity with APCI probe. […] The dwell times were 100 ms for each transition and a depolarization and collision energy of 100 and 40, respectively. Data from MS signals was using area under curve (AUC). Ratio=Estrone/(Estrone+Estradiol)
(§2) […] […] was used for curve fitting and calculation of IC50 values.
(§3) Compound effect was calculated with the formula below;
(§4) where X represents the effect in the presence of test compound, min is DMSO and max is the maximum inhibition of enzyme using a known inhibitor as control.

[2] = molecular target: recombinant 17bHSD4 (M1-N311) (Homo sapiens (Human), UniProt P51659); experiment: In Vitro 17bHSD4 Enzyme Assay; type: biochemical; conditions: 40 nM 17bHSD4, 0.125 mM NAD, 15 μM Estradiol, 1.5 h; NADH fluorescence; read-out: 17HSD17b4 Enzyme assay IC50
Experimental: In Vitro 17bHSD4 Enzyme Assay
10 concentration of compounds (0.2 μl) in DMSO was added to GREINER FLUOTRAC 200 384 well plate (781076) using ECHO dispensing (BECKMAN COULTER). 80 nl of 10 mM Estradiol (SIGMA, E8875) was added using Echo dispensing. The enzyme reaction was initiated by addition, using MULTIDROP COMBI dispensing (THERMO FISHER), of 40 μl of a mix containing recombinant 17bHSD4 (M1-N311) and NAD. Final assay conditions were 40 nM of 17bHSD4, 0.125 mM of NAD, 15 μM Estradiol and various concentrations of compound in buffer (5 mM EDTA (TEKNOVA E0306), 0.01% DDM (AFFYMETRIX D310) in 50 mM Tris-Cl, pH 7.4). After each addition plates were centrifuged for 1 min at 150×g (EPPENDORF, 5810R, A-4-81). NADH formation was measured by fluorescence intensity (FI) (Ex360/Em460) at time zero (to) and at 1.5 h (t1) in a PHERASTAR FSX (BMG LABTECH). FI for each sample was calculated as FI at t1 minus FI at t0.
as §2, §3, §4

[3] = molecular target: over expressed HSD17β13 in HEK293S cells (Homo sapiens (Human), UniProt Q7Z5P4); experiment: In Vitro 17bHSD13 Cell Assay; type: cell-based; conditions: HEK293S cells over expressing HSD17β13; estradiol to estrone conversion, 18 h, LC-MS/MS; read-out: 17bHSD1713 Cell assay IC50
Experimental: In Vitro 17bHSD13 Cell Assay
Inhibition of 17bHSD13 was measured in a cell-based assay with over expressed HSD17β13 in HEK293S cells, measuring estradiol to estrone conversion by LCMS/MS.
Samples were analyzed using LC-MS/MS.
as §1, with “analysed” for “analyzed”
as §2, §3, §4

[4] = molecular target: over expressed HSD17β9 in HEK293S cells (Homo sapiens (Human), UniProt Q92781); experiment: In Vitro 17bHSD9 Cell Assay; type: cell-based; conditions: HEK293S cells over expressing HSD17β9; retinol to retinal conversion, 18 h, LC-MS/MS; read-out: 17bHSD9 Cell assay IC50
Experimental: In Vitro 17bHSD9 Cell Assay
Inhibition of 17bHSD9 was measured in a cell-based assay with over expressed HSD17β9 in HEK293S cells, measuring retinol to retinal conversion by LCMS/MS.
Cells were plated in 384 well plates (GREINER CELL culture plate 384w black/clear Poly-D-Lysine) at 10 K c/w in 30 μl of culture media (DMEM with GLUTAMAX plus 10% FBS). […] After 18 h of cell culturing for 20 μl of media was transferred using BRAVO dispensing robot (AGILENT) to a GREINER PP 384 well plate (781280) and 40 μl of 50% acetonitrile was added. Samples were analyzed using LC-MS/MS.
SCIEX LC-MS/MS system: Sample was injected with CTC analytical injector, SHIMATZU LC pumps LC20 and analysed on the SCIEX API 5000 LCMSMS system with the following settings. Samples were chromatographed on a WATERS, symmetry, C8, 3.5 μm, 2.1×50 mm) column at constant flow rate of 0.5 mL/min. The mobile phases consists of A (water with 0.2% formic acid) and B (acetonitrile with 0.2% formic acid). The LC gradient profile is as follows: 50% B during 0 to 0.1 min, a linear increase to 100% B during 0.1 to 0.8 min, hold at 100% B during 0.8 to 1.5 min then back to 50% B from 1.5 to 1.6 min and hold during run time. The run time was 2 min with retention times of approximately 1.54 and 1.62 min for Retinol and Retinal, respectively. Detection was performed on a API 5000 LC/MS/MS system with a triple quadrupole mass spectrometer, a TURBO V ion source, in multiple reaction monitoring (MRM) mode at positive polarity with ESI probe. The MRM pairs were m/z 269.3 to m/z 93.0 and m/z 285.2 to 161.0. for Retinol and Retinal, respectively. The dwell times were 100 ms for each transition and a depolarization and collision energy of 50 and 25, respectively. Data from MS signals was using area under curve (AUC). Ratio=Retinal/(Retinal+Retinol).
as §2, §3, §4

recombinant 17bHSD4 (M1-N311), sequence (P51659 1-311): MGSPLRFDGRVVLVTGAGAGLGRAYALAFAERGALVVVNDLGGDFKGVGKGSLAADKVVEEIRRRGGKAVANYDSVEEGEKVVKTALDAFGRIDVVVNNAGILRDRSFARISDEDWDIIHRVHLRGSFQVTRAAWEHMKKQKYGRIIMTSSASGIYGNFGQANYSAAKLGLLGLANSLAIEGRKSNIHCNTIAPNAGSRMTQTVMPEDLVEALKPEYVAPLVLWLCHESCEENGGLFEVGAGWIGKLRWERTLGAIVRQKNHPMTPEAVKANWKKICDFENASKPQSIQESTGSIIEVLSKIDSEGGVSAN
over expressed HSD17β13 in HEK293S cells, sequence (Q7Z5P4 20-300): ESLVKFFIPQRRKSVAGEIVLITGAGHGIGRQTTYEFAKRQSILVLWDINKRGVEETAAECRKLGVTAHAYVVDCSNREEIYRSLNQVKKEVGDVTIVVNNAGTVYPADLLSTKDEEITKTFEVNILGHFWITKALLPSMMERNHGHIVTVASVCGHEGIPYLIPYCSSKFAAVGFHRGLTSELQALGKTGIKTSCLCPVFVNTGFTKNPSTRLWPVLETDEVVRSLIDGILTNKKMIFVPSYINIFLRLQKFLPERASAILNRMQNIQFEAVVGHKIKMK
over expressed HSD17β9 in HEK293S cells, sequence (Q92781 whole entry): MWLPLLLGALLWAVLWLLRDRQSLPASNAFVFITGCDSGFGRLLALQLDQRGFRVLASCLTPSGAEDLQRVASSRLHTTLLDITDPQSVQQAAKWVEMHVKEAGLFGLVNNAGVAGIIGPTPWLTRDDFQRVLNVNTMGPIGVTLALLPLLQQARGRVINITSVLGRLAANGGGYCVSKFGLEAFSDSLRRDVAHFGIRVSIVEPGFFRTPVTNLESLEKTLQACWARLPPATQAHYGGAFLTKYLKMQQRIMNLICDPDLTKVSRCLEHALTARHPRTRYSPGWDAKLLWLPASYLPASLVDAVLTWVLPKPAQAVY
recombinant 17bHSD13 (N2-K300), sequence (Q7Z5P4 2-300): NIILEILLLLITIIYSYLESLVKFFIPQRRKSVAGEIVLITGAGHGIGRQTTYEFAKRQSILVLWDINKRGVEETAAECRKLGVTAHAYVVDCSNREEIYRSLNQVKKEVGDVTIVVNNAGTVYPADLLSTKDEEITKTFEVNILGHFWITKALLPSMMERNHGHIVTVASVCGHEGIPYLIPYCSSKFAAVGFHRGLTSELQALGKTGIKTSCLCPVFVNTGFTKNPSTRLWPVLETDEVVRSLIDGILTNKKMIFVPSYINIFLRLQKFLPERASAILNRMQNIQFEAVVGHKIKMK

SMILES	pIC50 [1]	pIC50 [2]	pIC50 [3]	pIC50 [4]
CC(C)C1COCCN1C(=O)c1noc(-c2cc(F)c(F)c(O)c2F)n1 (centres unmarked) [Example 35, (3-Isopropylmorpholino)(5-(2,4,5-trifluoro-3-hydroxyphenyl)-1,2,4-oxadiazol-3-yl)methanone]	6.19	4.37	5.65	5.38
N#Cc1cccc(C2CN(C(=O)c3noc(-c4cc(F)c(F)c(O)c4F)n3)CCN2)c1 (centres unmarked) [Example 42, 3-(4-(5-(2,4,5-Trifluoro-3-hydroxyphenyl)-1,2,4-oxadiazole-3-carbonyl)piperazin-2-yl)benzonitrile]	6.04	< 4.30	5.00	< 4.30
COc1ccc(OC2CCN(C(=O)c3noc(-c4cc(F)c(F)c(O)c4F)c3C#N)CC2)nc1 [Example 25, 3-(4-((5-Methoxypyridin-2-yl)oxy)piperidine-1-carbonyl)-5-(2,4,5-trifluoro-3-hydroxyphenyl)isoxazole-4-carbonitrile]	6.54	4.61	6.09	4.64
O=C(c1noc(-c2cc(F)c(F)c(O)c2F)n1)N1CCSCC1 [Example 40, Thiomorpholino(5-(2,4,5-trifluoro-3-hydroxyphenyl)-1,2,4-oxadiazol-3-yl)methanone]	6.15	< 4.30	5.84	< 4.30
N#Cc1c(C(=O)N2CCC(c3ccccc3)C2)noc1-c1ccc(F)c(O)c1 (centres unmarked) [Example 13, 5-(4-Fluoro-3-hydroxyphenyl)-3-(3-phenylpyrrolidine-1-carbonyl)isoxazole-4-carbonitrile]	7.40	4.81	6.34	–
O=C(c1cc(-c2ccc(F)c(O)c2)no1)N1CCC(c2ccccc2)C1 (centres unmarked) [Example 6, (3-(4-Fluoro-3-hydroxyphenyl)isoxazol-5-yl)(3-phenylpyrrolidin-1-yl)methanone]	7.39	4.05	6.01	< 4.30
N#Cc1c(C(=O)N2CCN(c3nc4ccccc4o3)CC2)noc1-c1cc(F)c(F)c(O)c1F [Example 23, 3-(4-(Benzo[d]oxazol-2-yl)piperazine-1-carbonyl)-5-(2,4,5-trifluoro-3-hydroxyphenyl)isoxazole-4-carbonitrile]	6.85	4.47	6.03	< 4.30
O=C(c1noc(-c2cc(F)c(F)c(O)c2F)n1)N1CCO[C@H](C(F)(F)F)C1 [Example 46, (S)-(5-(2,4,5-Trifluoro-3-hydroxyphenyl)-1,2,4-oxadiazol-3-yl)(2-(trifluoromethyl)morpholino)methanone]	6.29	< 4.30	6.43	5.11
CC1(C)COCCN1C(=O)c1noc(-c2cc(F)c(F)c(O)c2F)n1 [Example 48, (3,3-Dimethylmorpholino)(5-(2,4,5-trifluoro-3-hydroxyphenyl)-1,2,4-oxadiazol-3-yl)methanone]	6.41	< 4.30	5.96	< 4.30
O=C(c1nnc(-c2ccc(F)c(O)c2)o1)N1CC[C@H](c2ccccc2)C1 [Example 1, (R)-(5-(4-Fluoro-3-hydroxyphenyl)-1,3,4-oxadiazol-2-yl)(3-phenylpyrrolidin-1-yl)methanone]	6.51	4.49	6.12	–

Results, then the compound that gave them:

pIC50 [1]	pIC50 [2]	pIC50 [3]	pIC50 [4]	SMILES
5.56	< 4.30	5.25	< 4.30	O=C(c1noc(-c2cc(F)c(F)c(O)c2F)n1)N1CCOC2(CCOCC2)C1 [Example 53, (1,9-Dioxa-4-azaspiro[5.5]undecan-4-yl)(5-(2,4,5-trifluoro-3-hydroxyphenyl)-1,2,4-oxadiazol-3-yl)methanone]
7.24	5.02	6.27	–	O=C(c1cc(-c2cc(F)c(F)c(O)c2F)on1)N1CC[C@H](c2ccccc2)C1 [Example 104, (R)-(3-Phenylpyrrolidin-1-yl)(5-(2,4,5-trifluoro-3-hydroxyphenyl)isoxazol-3-yl)methanone]
7.36	4.58	6.10	4.52	COc1ccc(OC2CCN(C(=O)c3noc(-c4cc(F)c(F)c(O)c4F)n3)CC2)nc1 [Example 68, (4-((5-Methoxypyridin-2-yl)oxy)piperidin-1-yl)(5-(2,4,5-trifluoro-3-hydroxyphenyl)-1,2,4-oxadiazol-3-yl)methanone]
6.84	4.98	6.43	5.30	CC(C)c1noc(C2=CCN(C(=O)c3noc(-c4cc(F)c(F)c(O)c4F)n3)CC2)n1 [Example 107, (4-(3-Isopropyl-1,2,4-oxadiazol-5-yl)-3,6-dihydropyridin-1(2H)-yl)(5-(2,4,5-trifluoro-3-hydroxyphenyl)-1,2,4-oxadiazol-3-yl)methanone]
